Drawing on PubChem BioAssay AID256 (DTP/NCI, 2004), this text covers T/C for 21 compounds.

The test system of the test is CD2F1 mice, L1210 leukemia ip, survival T/C. As to the kind of experiment: NCI In Vivo Anticancer Drug Screen. Data for tumor model L1210 Leukemia (intraperitoneal) in CD2F1 (CDF1) mice. Conditions: higher = longer survival. Summed up:
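Tumor-bearing mice (transplanted tumor) were split into treated and vehicle control groups, and the measured endpoint of each treated group was divided by that of its vehicle controls.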

[1] abbreviates: endpoint: mean survival time, dose: 100.0 mg/kg/injection, schedule: Q04DX003 (ip), vehicle: saline with Tween-80.
Setting [2] is: endpoint: mean survival time, dose: 200.0 mg/kg/injection, schedule: Q04DX003 (ip), vehicle: saline with Tween-80.
The mark [3] stands for this setting: endpoint: mean survival time, dose: 400.0 mg/kg/injection, schedule: Q04DX003 (ip), vehicle: saline with Tween-80.
Where [4] appears, read: endpoint: mean survival time, dose: 100.0 mg/kg/injection, schedule: Q01DX001 (ip), vehicle: saline with Tween-80.
[5] abbreviates: endpoint: mean survival time, dose: 200.0 mg/kg/injection, schedule: Q01DX001 (ip), vehicle: saline with Tween-80.
[6] abbreviates: endpoint: mean survival time, dose: 5.0 mg/kg/injection, schedule: Q04DX003 (ip), vehicle: saline.
Where [7] appears, read: endpoint: mean survival time, dose: 6.25 mg/kg/injection, schedule: Q01DX009 (ip), vehicle: saline with Tween-80.
The mark [8] stands for this setting: endpoint: mean survival time, dose: 100.0 mg/kg/injection, schedule: Q04DX002 (ip), vehicle: saline with Tween-80.
[9] abbreviates: endpoint: mean survival time, dose: 200.0 mg/kg/injection, schedule: Q04DX002 (ip), vehicle: saline with Tween-80.
Setting [10] is: endpoint: mean survival time, dose: 400.0 mg/kg/injection, schedule: Q01DX001 (ip), vehicle: saline with Tween-80.
Setting [11] is: endpoint: mean survival time, dose: 400.0 mg/kg/injection, schedule: Q04DX002 (ip), vehicle: saline with Tween-80.
The mark [12] stands for this setting: endpoint: mean survival time, dose: 50.0 mg/kg/injection, schedule: Q04DX003 (ip), vehicle: saline with Tween-80.

“And” between values parts separate entries of the source, which are not always exact repeats. Identical values can stand only once. Toxic doses and inconclusive results are not listed. Non-standard residues stand in square brackets, D forms with d. Residues, ends and D or L forms follow the SMILES beside them. Deg = CCC(N)(CC)C(=O)O

`C/C(=N\N)c1ccc(Cl)cc1`: the T/C by setting is: under setting [1], 103 % of control; under setting [2], 123 % of control; under setting [3], 109 % of control.

As to `CC(=O)C[n+]1ccc(C)cc1Sc1ccccc1C`, the T/C (endpoint: median survival time, dose: 25.0 mg/kg/injection, schedule: Q01DX009 (ip), vehicle: saline with Tween-80) was 98 % of control; the T/C (endpoint: median survival time, dose: 50.0 mg/kg/injection, schedule: Q01DX009 (ip), vehicle: saline with Tween-80) was 96 % of control; the T/C (endpoint: median survival time, dose: 100.0 mg/kg/injection, schedule: Q01DX009 (ip), vehicle: saline with Tween-80) is 98 % of control.

With `O=C[c-]1[c-][c-][c-][c-]1.[Fe+2].[c-]1[c-][c-][cH-][c-]1`, the T/C under setting [4] is 117 % of control and the T/C under setting [5] is 100 % of control.

On to `O=P1(OCCCCCl)NCCCO1` (stereo not drawn), for which the T/C was 103 % of control (endpoint: mean survival time, dose: 62.5 mg/kg/injection, schedule: Q01DX001 (ip), vehicle: water); 104 % of control (endpoint: mean survival time, dose: 125.0 mg/kg/injection, schedule: Q01DX001 (ip), vehicle: water); 103 % of control (endpoint: mean survival time, dose: 250.0 mg/kg/injection, schedule: Q01DX001 (ip), vehicle: water); 108 % of control (endpoint: mean survival time, dose: 500.0 mg/kg/injection, schedule: Q01DX001 (ip), vehicle: water); 101 % of control (endpoint: mean survival time, dose: 750.0 mg/kg/injection, schedule: Q01DX001 (ip), vehicle: water).

Take `COc1ccc(-c2nc3c(N)nc(N)nc3nc2N)cc1OC`: the T/C (endpoint: mean survival time, dose: 12.5 mg/kg/injection, schedule: Q01DX009 (ip), vehicle: water) is 105 % of control; the T/C (endpoint: mean survival time, dose: 25.0 mg/kg/injection, schedule: Q01DX009 (ip), vehicle: water) is 103 % of control; the T/C (endpoint: mean survival time, dose: 50.0 mg/kg/injection, schedule: Q01DX009 (ip), vehicle: water) is 103 % of control; the T/C (endpoint: mean survival time, dose: 100.0 mg/kg/injection, schedule: Q01DX009 (ip), vehicle: water) is 98 % of control; the T/C (endpoint: mean survival time, dose: 200.0 mg/kg/injection, schedule: Q01DX009 (ip), vehicle: water) is 88 % of control.

`C=Cc1ccc(Oc2ccccc2)cc1`: the T/C under setting [1] is 93 % of control, the T/C under setting [2] was 97 % of control and the T/C under setting [3] was 90 % of control.

In the case of `Cc1ccc(N/N=C/C(=O)O)cc1`, the T/C is, setting by setting: (endpoint: mean survival time, dose: 12.5 mg/kg/injection, schedule: Q04DX003 (ip), vehicle: other) 101 % of control; (endpoint: mean survival time, dose: 25.0 mg/kg/injection, schedule: Q04DX003 (ip), vehicle: other) 101 % of control; (endpoint: mean survival time, dose: 50.0 mg/kg/injection, schedule: Q04DX003 (ip), vehicle: other) 97 % of control; (endpoint: mean survival time, dose: 100.0 mg/kg/injection, schedule: Q04DX003 (ip), vehicle: other) 95 % of control; (endpoint: mean survival time, dose: 400.0 mg/kg/injection, schedule: Q04DX003 (ip), vehicle: other) 94 % of control.

For the compound `NC(N)=NCCc1ccccc1`, the T/C reads like this: (endpoint: mean survival time, dose: 5.0 mg/kg/injection, schedule: Q01DX009 (ip), vehicle: saline) 102 % of control; under setting [6], 92 % of control; (endpoint: mean survival time, dose: 10.0 mg/kg/injection, schedule: Q01DX009 (ip), vehicle: saline) 103 % of control; (endpoint: mean survival time, dose: 10.0 mg/kg/injection, schedule: Q04DX003 (ip), vehicle: saline) 102 % of control; (endpoint: mean survival time, dose: 20.0 mg/kg/injection, schedule: Q01DX009 (ip), vehicle: saline) 96 % of control; (endpoint: mean survival time, dose: 20.0 mg/kg/injection, schedule: Q04DX003 (ip), vehicle: saline) 97 % of control.

As for `C[N+](C)(C)C`, the T/C is, setting by setting: (endpoint: mean survival time, dose: 5.0 mg/kg/injection, schedule: Q01DX001 (ip), vehicle: saline) 98 % of control; (endpoint: mean survival time, dose: 5.0 mg/kg/injection, schedule: Q01DX009 (ip), vehicle: saline sonified) 95 % of control; under setting [6], 100 % of control; under setting [7], 96 % of control; (endpoint: mean survival time, dose: 10.0 mg/kg/injection, schedule: Q01DX009 (ip), vehicle: saline sonified) 87 % of control; (endpoint: mean survival time, dose: 20.0 mg/kg/injection, schedule: Q01DX001 (ip), vehicle: saline) 98 % of control.

Take `Fc1ccc2c(c1)C(Br)c1ccccc1-2` (stereo not drawn): the T/C under setting [7] was 96 % of control; the T/C (endpoint: mean survival time, dose: 12.5 mg/kg/injection, schedule: Q01DX009 (ip), vehicle: saline with Tween-80) is 96 % of control; the T/C (endpoint: mean survival time, dose: 25.0 mg/kg/injection, schedule: Q01DX009 (ip), vehicle: saline with Tween-80) was 105 % of control; the T/C under setting [1] is 108 % of control; the T/C under setting [2] is 88 % of control; the T/C under setting [3] is 97 % of control.

For the compound `CCC1=C[C@H]2CN(CCc3c([nH]c4ccccc34)[C@@](C(=O)OC)(c3cc4c(cc3OC)N(C)[C@H]3[C@@](O)(C(=O)OC)[C@H](OC(C)=O)[C@]5(CC)C=CCN6CC[C@]43[C@@H]65)C2)C1`, the T/C by setting is: (endpoint: mean survival time, dose: 0.25 mg/kg/injection, schedule: Q01DX009 (ip), vehicle: water) 102 % of control; (endpoint: mean survival time, dose: 2.0 mg/kg/injection, schedule: Q01DX009 (ip), vehicle: water) 161 % of control; (endpoint: mean survival time, dose: 4.0 mg/kg/injection, schedule: Q01DX009 (ip), vehicle: water) 91 % of control; (endpoint: median survival time, dose: 0.5 mg/kg/injection, schedule: Q01DX009 (ip), vehicle: water) 115 % of control.

`CN1CCCCCC1`: the T/C was 100 % of control under setting [1] and 111 % of control under setting [2].

On to `CC(C)(C)CC(C)(C)c1ccc(OCCOc2ccc(NS(=O)(=O)c3ccc(N)c([N+](=O)[O-])c3)cc2)cc1`, for which the T/C runs as follows: (endpoint: mean survival time, dose: 50.0 mg/kg/injection, schedule: Q01DX009 (ip), vehicle: Klucel (hydroxypropylcellulose) (HPC)) 101 % of control; (endpoint: mean survival time, dose: 100.0 mg/kg/injection, schedule: Q01DX009 (ip), vehicle: Klucel (hydroxypropylcellulose) (HPC)) 101 % of control; (endpoint: mean survival time, dose: 200.0 mg/kg/injection, schedule: Q01DX009 (ip), vehicle: Klucel (hydroxypropylcellulose) (HPC)) 98 % of control.

Take `NC1C(O)C(O)C(O)C(O)C1O` (stereo not drawn): the T/C is, setting by setting: (endpoint: mean survival time, dose: 100.0 mg/kg/injection, schedule: Q01DX001 (ip), vehicle: saline) 98 % of control; (endpoint: mean survival time, dose: 200.0 mg/kg/injection, schedule: Q01DX001 (ip), vehicle: saline) 98 % of control; (endpoint: mean survival time, dose: 400.0 mg/kg/injection, schedule: Q01DX001 (ip), vehicle: saline) 98 % of control.

Regarding `O=S1(=O)OC2(CCCCC2)c2ccccc21`, the T/C reads like this: under setting [4], 95 % of control; under setting [8], 96 % of control; under setting [5], 95 % of control; under setting [9], 90 % of control; under setting [10], 100 % of control; under setting [11], 93 % of control.

As for `CC(CCCC1SCC2NC(=O)NC21)C(=O)O` (stereo not drawn), the T/C under setting [1] was 98 % of control, the T/C under setting [2] was 98 % of control and the T/C under setting [3] is 98 % of control.

As to `COCC(=O)C(C(C)=O)C(c1ccc(OC)cc1)C(C(C)=O)C(=O)COC` (stereo not drawn), the T/C runs as follows: under setting [4], 101 % of control; under setting [5], 98 % of control; under setting [10], 95 % of control.

In the case of `CN(C)N=C1CCCC1`, the T/C runs as follows: under setting [12], 101 % of control; (endpoint: mean survival time, dose: 75.0 mg/kg/injection, schedule: Q01DX001 (ip), vehicle: saline) 98 % of control; under setting [1], 95 % of control; (endpoint: mean survival time, dose: 150.0 mg/kg/injection, schedule: Q01DX001 (ip), vehicle: saline) 100 % of control; under setting [2], 100 % of control.

`O=S(=O)(F)c1ccc(O)cc1`: the T/C reads like this: (endpoint: mean survival time, dose: 25.0 mg/kg/injection, schedule: Q01DX009 (ip), vehicle: saline + alcohol) 93 % of control; (endpoint: mean survival time, dose: 25.0 mg/kg/injection, schedule: Q04DX003 (ip), vehicle: saline with Tween-80) 93 % of control; (endpoint: mean survival time, dose: 50.0 mg/kg/injection, schedule: Q01DX001 (ip), vehicle: saline with Tween-80) 96 % of control; (endpoint: mean survival time, dose: 50.0 mg/kg/injection, schedule: Q01DX009 (ip), vehicle: saline + alcohol) 95 % of control and 100 % of control; under setting [12], 93 % of control; under setting [4], 95 % of control. In addition, the T/C is 93 % of control and 95 % of control (endpoint: mean survival time, dose: 100.0 mg/kg/injection, schedule: Q01DX009 (ip), vehicle: saline + alcohol); 103 % of control and 107 % of control under setting [8]; 101 % of control under setting [1].

As for `c1cc2c(cc1CNC1=NCCO1)OCO2`, the T/C is, setting by setting: under setting [1], 98 % of control; under setting [2], 105 % of control; under setting [3], 98 % of control.

`CCC(CC)(NC(=O)CN)C(=O)O` (H-Gly-[Deg]-OH): the T/C runs as follows: under setting [8], 96 % of control; under setting [9], 104 % of control; under setting [11], 96 % of control.
